Measurements: patent publication US20140350097A1, “TREATMENT OF HYPOTENSION ASSOCIATED WITH HEMODIALYSIS” (priority 2013, published 2014)

Key:
Sprague-Dawley rats = test: 14-day infusion toxicity in Sprague-Dawley rats; type: in vivo
Description: The safety profile of NOX-100 was further evaluated in Sprague-Dawley rats (10/sex/group for the main study and 24/sex/group for the satellite groups for plasma concentration determination). Rats were administered with NOX-100 at 0, 100, 500 or 2000 mg/kg/day by infusion over a period of 8 hours for 14 days.
The dose of 100 mg/kg/day is considered the no-effect-level in rats.

[1] = Preliminary intravenous pharmacokinetics in dogs; type: in vivo, dog; details: bolus injection 30 mg/kg i.v.
Description: (§1) The pharmacokinetics of intravenously administered NOX-100 was evaluated in mice, rats and dogs. Preliminary pharmacokinetic studies were conducted using a bolus injection of 30 mg/kg. Post injection, the drug was rapidly eliminated in all three species in a bi-exponential manner with a beta-t½ of approximately 6, 30 and 40 minutes in the mouse, rat and dog, respectively. […] The volume of distribution was around 20-30% of body weight and was similar in the three species. This is likely due to the hydrophilic nature of the drug and may reflect the distribution of NOX-100 primarily in the extracellular space.

male Wistar rats = test: Preliminary acute single dose toxicity study in male Wistar rats; type: in vivo, rat; details: single I.V. 30-608 mg/kg or S.C. 250-1,000 mg/kg, 7-day observation
Description: NOX-100 has been evaluated in a number of toxicological studies, including acute (single-dose in rats and dogs; 4-day dosing in rats and dogs), subacute (14-day dosing in rats and dogs) studies, and in vitro mutagenicity testing.
In a preliminary acute single dose study, male Wistar rats were administered NOX-100 intravenously (I.V.) at doses of 30-608 mg/kg or subcutaneous (S.C.) doses of 250-1,000 mg/kg. Each dosing was followed by a 7-day observation period. […] Another group of male Wistar rats were administered NOX-100 with Fe^2+ as a single SC dose at 250-1,000 mg/kg. […] Without wishing to be bound by any theory, it is believed that this discoloration was due to the color of the compound at the high dose.

[2] = Preliminary intravenous pharmacokinetics in mice; type: in vivo, mouse; details: bolus injection 30 mg/kg i.v.
Description: as §1

beagle dogs [3] = test: 1 or 4 day infusion toxicity in beagle dogs; type: in vivo, dog
[4] = Binding of .NO by NOX-100 in the presence of a metal ion; details: in the presence of a metal ion (e.g., iron)
From the text: As illustrated in Scheme 1 following, the binding is a two-step process. First, two molecules of NOX-100 combine with Fe^2+ to form a complex, [(NOX)2-Fe], which is held together via the planar coordination of the Fe^2+ by two dithiocarbamates. Next, the [(NOX)2-Fe] complex tightly binds .NO, forming an .NO-containing complex, [(NOX)2-Fe—NO]. See e.g., Yokokawa et al, 1995, Id.; Kang et al, 1997, Id.

[5] = Preliminary intravenous pharmacokinetics in rats; type: in vivo, rat; details: bolus injection 30 mg/kg i.v.
Description: as §1

beagle dogs [6] = test: 14-day infusion toxicity in beagle dogs; type: in vivo
Description: Based on the findings from the 4-day study, doses of NOX-100 at 100, 500 and 1000 mg/kg/day infused over a period of 8 hours for 14 days were evaluated in beagle dogs. […] Therefore the high dose of 1000 mg/kg/day was reduced to 250 mg/kg/day on Days 8-14. […] The low dose of 100 mg/kg/day over a period of 8 hours was considered a no-effect level.
The no adverse effect level in dogs (the animal that appeared most sensitive to the effects of NOX-100) was 100 mg/kg given as an 8 hour daily infusion for 14 days. In this study, the NOX-100 was administered as an 11.1 mg/kg bolus loading dose and an 8-hour 11.1 mg/kg/hr infusion maintenance dose.

[7] = system: subjects with hypotensive episodes during hemodialysis; test: Human clinical dose escalation study in hemodialysis subjects with hypotensive episodes; type: in vivo
From the text: In that study, the drug was given to subjects who had at least 3 hypotensive episodes during hemodialysis in the prior month. Subjects received the drug during hemodialysis when systolic blood pressure (SBP) had fallen at least 15 mmHg. The following trends appeared between drug and placebo periods. […] The SBP over this time period averaged 4 mmHg higher for drug than for placebo with a standard deviation of 16 mmHg. […] As hypotension worsened, the patients developed several different symptoms that were not predictable for any given patient. Clinical interventions intended to relieve hypotension were also variable and were applied at inconsistent times from patient to patient. This was a result of long standing practices established by patient and nurse to avoid severe symptoms. For example, patients would sometimes request an intervention that they thought would be helpful and nurses would sometimes institute an intervention when they thought that a blood pressure trend might soon lead to symptoms. It was felt unethical to intervene in this process, since the aim was to avoid patient discomfort.

rats = test: 4-day infusion toxicity in rats (2000 mg/kg over 2 hours); type: in vivo, rat
Description: The high dose of 2000 mg/kg of NOX-100 administered over a period of 2 hours was again tested in a group of rats for 4 consecutive days. […] Mitotic figures in basophilic tubules were also noted. These changes were considered treatment related. […] It appeared that female rats had lower plasma concentrations of NOX-100 compared to males.

[8] = females, 500 mg/kg/day, 14 days
[9] = 2000 mg/kg over 2 hours, 4 consecutive days

Q: Which results are given for `CN(C[C@H](O)[C@@H](O)[C@H](O)[C@H](O)CO)C(=S)S` [NOX-100, N-methyl-D-glucamine dithiocarbamate]?
A: microscopic findings in urinary bladder and duodenum (Sprague-Dawley rats; 2000 mg/kg/day, 14 days): hyperplasia of the urinary bladder and increased mitotic figures and dilatation of lymphatic vessels in the duodenum; clinical chemistry, urinary output and kidney weight changes (Sprague-Dawley rats; 8-hour infusion, 14 days): Elevations in blood urea nitrogen and creatinine, increases in urinary output and kidney weights; clinical signs of salivation (Sprague-Dawley rats; 8-hour infusion, 14 days): noted mostly at 2000 mg/kg/day and occasionally in the lower dose groups; microscopic changes in the kidney (Sprague-Dawley rats; 8-hour infusion, 14 days): tubular epithelial basophilia, pyelitis at the papillary tip and hyperplasia of the pelvic transitional epithelium; treatment related deaths (Sprague-Dawley rats; 100, 500 or 2000 mg/kg/day, 8-hour infusion, 14 days): no treatment related deaths; dose concentration relationship (Sprague-Dawley rats; 100-2000 mg/kg/day): proportional dose concentration relationship; mean plasma concentrations between 4 to 7.75 hours from the start of infusion (Sprague-Dawley rats; each day): remained constant; kidney weights (Sprague-Dawley rats; [8]): increased; microscopic changes (kidney) (Sprague-Dawley rats; [8]): only seen in one rat; mean plasma concentrations between Days 1, 7 and 14 (Sprague-Dawley rats; rat, in vivo): similar; mean steady state plasma concentrations, males versus females (Sprague-Dawley rats; rat, in vivo): no differences; no-effect-level (Sprague-Dawley rats; rats, 8-hour infusion, 14 days): 100 mg/kg/day; observable toxicity (Sprague-Dawley rats; rats, doses of up to 2000 mg/kg/day, 14 consecutive days): little observable toxicity; clearance ([1]; dog, in vivo, iv, dogs, read-out: clearance rate): 4.1 ± 0.6 mL/min/kg; volume of distribution ([1]; dogs): 20-30 % of body weight; half-life ([1]; in vivo, iv, dog, read-out: beta-t½): ~40 min; mortality and overt signs of toxicity (male Wistar rats): no mortality or overt signs of toxicity; half-life ([2]; in vivo, iv, mouse, read-out: beta-t½): ~6 min; volume of distribution ([2]; mice): 20-30 % of body weight; clearance ([2]; mouse, in vivo, iv, mice, read-out: clearance rate): 26 mL/min/kg; pathological findings (beagle dogs [3]; 2000 mg/kg/day): thickening of the duodenal wall and tubular dilatation of the kidney with basophilia in the cortex and vacuolation in the areas of cortical tubules; body weight and food consumption (beagle dogs [3]; 500-2000 mg/kg/day, 8-hour infusion, 1 or 4 days): decreased; plasma concentrations on Day 4 compared to Day 1 (beagle dogs [3]; 2 hours from the start of infusion, males and females): apparent increases; doses at which signs of adverse effects were first observed (beagle dogs [3]; dogs): 500 to 2000 mg/kg/day; binding of .NO [4]: binds .NO very tightly; half-life ([5]; in vivo, iv, rat, read-out: beta-t½): ~30 min; clearance ([5]; rat, in vivo, iv, rats, read-out: clearance rate): 15 ± 1 mL/min/kg; volume of distribution ([5]; rats): 20-30 % of body weight; mortality (beagle dogs [6]; 1000 mg/kg/day, 8-hour infusion): One male dog in the high dose (1000 mg/kg/day) group died on Day 6; dose concentration relationship (beagle dogs [6]; dog, in vivo): proportional dose concentration relationship; mean plasma concentration throughout Days 1, 7 and 14 (beagle dogs [6]; dog, in vivo): similar; mean steady state plasma concentrations, males versus females (beagle dogs [6]; dog, in vivo): no differences; dose level of initial toxicity as multiple of the no adverse effect level (beagle dogs [6]; dogs): 5 times; no adverse effect level (beagle dogs [6]; dogs, 8 hour daily infusion for 14 days): 100 mg/kg; no-effect level (beagle dogs [6]; dogs, over a period of 8 hours, 14 days): 100 mg/kg/day; mean plasma concentration between 4 to 7.75 hours from the start of infusion (beagle dogs [6]; each day): remained constant; clinical and laboratory findings accompanied by renal lesions (beagle dogs [6]; generally at 500 or 1000 mg/kg/day): Clinical signs of deterioration, reduction in body weight and food intake together with changes in serum chemistry and creatinine clearance; histopathological examination of the animal that died (beagle dogs [6]; male, 1000 mg/kg/day): renal lesions consisting of tubular basophilia and dilatation, hyperplasia of the transitional epithelium of the papilla and some vascular hemorrhage or congestion; clinically significant toxicity ([7]; 7 dose escalations, 4 subjects per group): did not reveal any clinically significant toxicity at any dose; average SBP difference, drug higher than placebo ([7]; 30 to 120 minutes following drug administration, standard deviation 16 mmHg): 4 mmHg; heart rate, diastolic blood pressure, number of interventions for low blood pressure or number of symptoms, drug versus placebo periods ([7]; hemodialysis subjects): no apparent differences; systolic blood pressure (SBP), drug versus placebo ([7]; three highest doses, 30 to 120 minutes following drug administration): trend for SBP to be higher after drug than after placebo; plasma concentrations in female rats compared to males (rats; 2000 mg/kg): lower; hemoglobin and hematocrit values (rats; [9]): slight decrease; red blood cell count (rats; [9]): slight decrease; animals with cortical tubular basophilia of the kidney, occasionally with tubular dilatation (rats; 5 males, 2000 mg/kg/day, 2-hour infusion, 4 consecutive days): 5/5; plasma concentrations on Day 4 compared to Day 1 (rats; HPLC, 1 and 1.75 hours after infusion, 2000 mg/kg): slightly higher; mitotic figures in basophilic tubules (rats; males, 2000 mg/kg/day, 4 consecutive days): noted
